# Results as given in patent US8378102B2, “Oxime and hydroxylamine substituted thiazolo[4,5-c] ring compounds and methods” (3M Innovative Properties Company, priority 2005, dated 2013).
row,melting point [°C],Compound
1,152 to 153,"CC(C)=NOCc1nc2c(N)nc3ccccc3c2s1 [Example 1, Acetone O-[(4-amino[1,3]thiazolo[4,5-c]quinolin-2-yl)methyl]oxime]"
2,211 to 213,"CC(C)=NOCc1nc2c(N)nc3cc(Br)ccc3c2s1 [Example 2, Acetone O-(4-amino-7-bromo[1,3]thiazolo[4,5-c]quinolin-2-ylmethyl)oxime]"
3,262 to 264,"CON=Cc1nc2c(N)nc3cc(Br)ccc3c2s1 [Example 3, 4-Amino-7-bromo[1,3]thiazolo[4,5-c]quinoline-2-carbaldehyde O-methyloxime]"
4,259 to 261,"CON=Cc1nc2c(N)nc3cc(-c4ccccc4)ccc3c2s1 [Example 138, 4-Amino-7-phenyl-thiazolo[4,5-c]quinoline-2-carbaldehyde O-methyl-oxime]"
5,254 to 256,"CON=Cc1nc2c(N)nc3cc(-c4cccc(NS(C)(=O)=O)c4)ccc3c2s1 [Example 139, N-{3-[4-Amino-2-(methoxyimino-methyl)-thiazolo[4,5-c]quinolin-7-yl]-phenyl}-methanesulfonamide]"
